One data set concerns the target T1, cathepsin E (Homo sapiens, UniProt P14091).
T1 construct: purchased R&D Systems Inc
T1 sequence (P14091 54-396): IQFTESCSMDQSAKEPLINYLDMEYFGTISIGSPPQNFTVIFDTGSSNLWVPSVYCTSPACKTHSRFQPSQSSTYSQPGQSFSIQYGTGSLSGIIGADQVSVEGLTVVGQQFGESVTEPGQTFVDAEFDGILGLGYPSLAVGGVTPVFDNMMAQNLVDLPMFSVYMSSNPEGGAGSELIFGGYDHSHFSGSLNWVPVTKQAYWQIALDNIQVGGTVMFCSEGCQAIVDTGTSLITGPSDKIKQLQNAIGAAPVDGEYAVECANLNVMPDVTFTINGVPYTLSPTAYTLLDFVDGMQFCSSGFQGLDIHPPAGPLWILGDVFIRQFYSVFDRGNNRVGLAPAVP
The data set is described as follows: Protease digestion of resistin by cathepsin E with HIV-1 protease inhibitors, SDS-PAGE. Type of data set: biochemical. The note with it: for inhibition of cleavage of resistin by cathepsin E: 1 ug alkylated and reduced resistin, 0.1 ug cathepsin E. The protocol: (§1) Atazanavir was synthesized by and provided in pure form from the Chemistry Division of Bristol-Myers Squibb Co. All compounds were dissolved in 100% DMSO (Sigma). The final concentration of DMSO was 0.2% in experiments that included a protease inhibitor.
(§2) Recombinant Proteins: Recombinant human and mouse resistin were obtained from Santa Cruz Biotech. Recombinant cathepsin D and cathepsin E were obtained from R&D Systems Inc. Recombinant HIV-1 protease was obtained from Protein One. Recombinant renin was obtained from Cayman Chemical and recombinant trypsin was from Promega.
(§3) Alkylation/Reduction of Cysteine Residues: Lyophilized resistin (24 micrograms) was resuspended in 50 ul of fresh UA buffer (8 M urea, 0.4 M ammonium bicarbonate) and 5 ul of 45 mM DTT. The mixture was then incubated at 50° C. for 15 min, followed by addition of 5 ul of 0.1 M iodoacetamide. The reaction was then incubated for an additional 15 min in the dark at room temperature, followed by the addition of 140 ul of H20.
(§4) Preparation of Proteases: Lyophilized cathepsin D (10 ug) was resuspended in 100 ul H20. Cathepsin D was activated prior to use by incubating at 20 ng/ul in CathD buffer (100 mM NaOAc, 200 mM NaCl, pH 4.7) for 30 min at 37° C. Lyophilized cathepsin E (10 ug) was resuspended in 100 ul of reconstitution buffer (25 mM MES, 0.15 M NaCl, pH 6.5). Cathepsin E was activated prior to use by incubating at 20 ng/ul in CathE buffer (100 mM NaOAc, 100 mM NaCl, pH 4.7) for 30 min at room temperature. Renin was diluted to 20 ng/ul in renin buffer (50 mM Tris-HCl, pH 8, 100 mM NaCl) prior to use. Lyophilized trypsin (20 ug) was resuspended in 500 ul reconstitution buffer provided by the manufacturer (Promega). Trypsin was activated prior to use by incubating for 15 min at 30° C. HIV-1 protease was used directly from the manufacturer.
(§5) Protease Digestion Experiments: In all protease digestion reactions, 1 ug of alkylated and reduced resistin was incubated with either 1 ug HIV-1 protease, 0.1 ug cathepsin D, 0.1 ug cathepsin E or 0.1 ug trypsin. HIV-1 protease digestion was performed in HIV-1 PR buffer (50 mM MES (pH 6), 100 mM NaCl). Trypsin digestion was performed in TE buffer (10 mM Tris (pH 8), 0.1 mM EDTA (pH 8)). The respective reaction buffers for cathepsin D, cathepsin E and renin are listed above under “Preparation of proteases”. […] All protease digestion experiments were incubated for 24 hr at 37° C. with the exception of experiments containing cathepsin E, which were incubated at room temperature. Reactions were quenched in LDS loading dye (Invitrogen) containing reducing agent (Invitrogen). Reactions were subsequently heated at 70° C. for 5 min prior analysis by SDS-PAGE.
(§6) SDS-PAGE Analysis: Cleavage products were resolved using 4-12% Bis-Tris NUPAGE® Gels (Invitrogen). Gels were run at 200 V for 20 min in MES buffer. Protein bands were visualized by staining with Gel Code reagent (Pierce).

For data set [1] the following is noted: human, in vivo; cited from earlier work.
The next data set has as its target T2, cathepsin D (Homo sapiens, UniProt P07339).
T2 construct: purchased R&D Systems Inc
The data set is described as follows: Protease digestion of resistin by cathepsin D with HIV-1 protease inhibitors, SDS-PAGE. Type of data set: biochemical. The note with it: for inhibition of cleavage of resistin by cathepsin D: 1 ug alkylated and reduced resistin, 0.1 ug cathepsin D. The method, then: as §1, §2, §3, §4, §5, §6

T2 sequence (P07339 65-412): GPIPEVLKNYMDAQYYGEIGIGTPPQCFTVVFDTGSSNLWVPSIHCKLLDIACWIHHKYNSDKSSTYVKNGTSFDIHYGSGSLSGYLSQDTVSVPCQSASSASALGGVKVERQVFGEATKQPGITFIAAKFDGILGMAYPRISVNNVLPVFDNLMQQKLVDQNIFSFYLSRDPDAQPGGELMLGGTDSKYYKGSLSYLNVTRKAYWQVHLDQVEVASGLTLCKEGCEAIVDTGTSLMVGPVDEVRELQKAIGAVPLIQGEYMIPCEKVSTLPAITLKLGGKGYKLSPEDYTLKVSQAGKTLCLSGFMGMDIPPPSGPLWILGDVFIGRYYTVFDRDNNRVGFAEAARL

As for `COC(=O)N[C@H](C(=O)N[C@@H](Cc1ccccc1)[C@@H](O)CN(Cc1ccc(-c2ccccn2)cc1)NC(=O)[C@@H](NC(=O)OC)C(C)(C)C)C(C)(C)C` [atazanavir], the “inhibition of cleavage of resistin by cathepsin E” value (from here on “inhibition … by cathepsin E”) against cathepsin E (24 hr at room temperature) was “not detectably inhibited”. Also, in data set [1], the “change in fasting LDL cholesterol, total cholesterol, and fasting triglycerides” value is listed as “either no change or decreases”. At cathepsin D (24 hr at 37° C.), the “inhibition of cleavage of resistin by cathepsin D” value (“inhibition … by cathepsin D” for short) is reported as “not detectably inhibited”.
In the case of `CC(C)(C)NC(=O)[C@@H]1CN(Cc2cccnc2)CCN1C[C@@H](O)C[C@@H](Cc1ccccc1)C(=O)N[C@H]1c2ccccc2C[C@H]1O` [indinavir], the “inhibition … by cathepsin E” value against cathepsin E (24 hr at room temperature) is “not”. The “inhibition … by cathepsin D” value on cathepsin D (24 hr at 37° C.) is given as “not”.
`Cc1cccc(C)c1OCC(=O)N[C@@H](Cc1ccccc1)[C@@H](O)C[C@H](Cc1ccccc1)NC(=O)[C@H](C(C)C)N1CCCNC1=O` [lopinovir]: in data set [1], the “correlation of lipid abnormalities with plasma concentrations” value was “did not correlate”.
Consider `Cc1c(O)cccc1C(=O)N[C@@H](CSc1ccccc1)[C@H](O)CN1C[C@H]2CCCC[C@H]2C[C@H]1C(=O)NC(C)(C)C` [nelfinavir], for which the “inhibition … by cathepsin E” value against cathepsin E (24 hr at room temperature) was “not”. Also, the “association with HIV-1 protease inhibitor induced metabolic abnormalities” value in data set [1] is “are not”. Further, at cathepsin D (24 hr at 37° C.), the “inhibition … by cathepsin D” value is recorded as “not”.
Take `CC(C)c1nc(CN(C)C(=O)N[C@H](C(=O)N[C@@H](Cc2ccccc2)C[C@H](O)[C@H](Cc2ccccc2)NC(=O)OCc2cncs2)C(C)C)cs1` [ritonavir]: the “concentration at which cleavage of resistin by cathepsin E was detectably inhibited” value at cathepsin E (24 hr at room temperature, FIG. 2) stood at 10 µM; on cathepsin E (Example 1, FIG. 2, 24 hr at room temperature), 10 µM. Further, the “concentration at which cathepsin E was fully inhibited” value at cathepsin E (Example 1, resistin cleavage) is 30 µM; at cathepsin E (resistin cleavage, 24 hr at room temperature), 30 µM. Further, in data set [1], the “elevated plasma cholesterol and plasma triglyceride levels” value is reported as “significantly more pronounced”. The frequency of hypertriglyceridaemia entry in data set [1] was “more frequent”. For the same compound, in data set [1], the hypercholesterolemia result is “observed”. For the same compound, in data set [1], the hypertriglyceridaemia entry is recorded as “severe hypertriglyceridaemia”. For the same compound, the “concentration at which cleavage of resistin by cathepsin D was detectably inhibited” value on cathepsin D (24 hr at 37° C., FIG. 2) is 30 µM; on cathepsin D (Example 1, FIG. 2, 24 hr at 37° C.), 30 µM. Further, the “concentration at which cathepsin D was fully inhibited” value on cathepsin D (Example 1, resistin cleavage) is 100 µM; on cathepsin D (resistin cleavage, 24 hr at 37° C.) it was 100 µM.
On to `CC(C)(C)NC(=O)[C@@H]1C[C@@H]2CCCC[C@@H]2CN1C[C@@H](O)[C@H](Cc1ccccc1)NC(=O)[C@H](CC(N)=O)NC(=O)c1ccc2ccccc2n1` [saquinavir], for which the “inhibition … by cathepsin E” value at cathepsin E (24 hr at room temperature) is given as “prevented”. Further, the “association with HIV-1 protease inhibitor induced metabolic abnormalities” value in data set [1] is listed as “known to be associated”. Moreover, the “inhibition … by cathepsin D” value at cathepsin D (24 hr at 37° C.) is “prevented”.

These data come from patent US7598029B2, “Method for identifying HIV-1 protease inhibitors with reduced metabolic affects” (Bristol-Myers Squibb Company, priority 2006, dated 2009).
